Results reported in US20250313555A1, “2-SUBSTITUTED THIAZOLE AND BENZOTHIAZOLE COMPOSITIONS AND METHODS AS DUX4 INHIBITORS” (ALTAY THERAPEUTICS, INC., priority 2022, published 2025).

Tests used:
Assay type in all cases: cell-based
[1] = Cell cytotoxicity 50 assay (CC50), HEK cells; conditions: human
Experimental: (§1) Cell Cytotoxicity 50 Assay Protocol (CC50) Into a deep well block (DWB), the media for the appropriate cell line (450 μL/well) was added into wells 1-10. Into DWB well 2, 10 mM of drug solution (13.5 μL) was added, followed by an additional volume of the medium (225 μL). The well was pipetted up/down four times. A portion (225 μL) was transferred to well 3, and this process was repeated up to well 10. Using a multichannel pipet, a smaller portion (50 μL/well) was removed from all wells in the DWB and then dispensed on top of the cells in each corresponding row. After adding the drug, the plate was incubated at 37° C. for 72 h. Using a multi-channel pipet, pre-warmed cell titer glo reagent (Promega) (100 μL) was added into every well. After 5 minutes, the total luminescence was measured with a luminometer. CC50 was determined with GraphPad prism template.

[2] = tested on: MBD3L2 RNA; test: RNA isolation and qPCR to determine MBD3L2 RNA levels in FSHD cells; conditions: 48 hrs
Experimental: Protocol for RNA Isolation and qPCR to Determine MBD3L2 RNA Levels The protocol describes the process of isolating RNA from cultured cells, converting the RNA to complementary DNA (cDNA), and measuring target gene expression using a quantitative polymerase chain reaction (qPCR). The seed FSHD cells were dispensed into a six-well dish. One day after seeding, the DUX4 inhibitor (11 μM or 3.6 μM/well) was added to the cells. After another 48 hrs, the old media was removed from the cells. The cells were washed with 2 mL of warm phosphate buffered saline (PBS). The PBS was aspirated, and the cells were lysed in each well with 350 μL of RLT buffer+3.5 μL of beta-mercaptoethanol (BME). The lysates were added to fresh, RNAse-free, labeled Eppendorf tubes. The cells were then physically disrupted for […] at level 4 of the bead disrupter to ensure the release of the RNA. The RNA was collected according to standard procedures (i.e., Qiagen kit instructions) as discussed below. The RNA concentrations were standardized to […]. In a PCR tube, RNA (2 μg) in a new Eppendorf tube was diluted with RNase-free water to a 9.5 μL final volume of […] RNA. DNase was used to remove any DNA contamination. A DNase Master Mix was prepared from 1.5 μL/reaction DNase solution (1 unit/μL, Promega), 3 μL/reaction 5× RT buffer (i.e., 250 mM Tris-HCl (pH 8.3), 375 mM KCl, 15 mM MgCl2, and 500 μl 0.1 M DTT; Promega MMLV), and 1 μL/reaction RNase inhibitor solution (RNasin, 40 units/μL, Promega). The DNase Master Mix was added to the standardized RNA samples (5.5 μL/sample). The samples were mixed by agitation and briefly spun down by centrifuge. The samples were heated to 37° C. for 60 min, 80° C. for 5 min, and then cooled to 4° C. The samples were stored on ice until the addition of the next reagents. An RT Reaction Master Mix was prepared from 5 μL/reaction 5× RT buffer, 2 μL/reaction dNTP solution (2.5 mM in each nucleotide), 1 μL/reaction RNase inhibitor solution (RNasin, 40 units/μL, Promega), 1.6 μL/reaction M-MLV reverse transcriptase (200 units/μL, Promega), and 13.4 μL/reaction deionized, RNase-free water. The RT Reaction Master Mix was cooled on ice until use. A 50 μM solution of Random Primer 6 random hexanucleotides (2 μL) was added to each sample. The samples were mixed by agitation and briefly spun down by centrifuge. The samples were heated to 70° C. for 5 min and then cooled to 4° C. The RT Reaction Master Mix (23 μL) was added to each sample. The samples were mixed by agitation and briefly spun down by centrifuge. To convert the RNA to cDNA, the samples were heated to 42° C. for 60 min, 95° C. for 5 min, and then cooled to 4° C. The cDNA product mixture was diluted 5:1 with deionized water (40 μL+160 μL). The samples were run in triplicate, with a methyl-CpG-binding protein 3-like 2 (MBD3L2) target primer and a eukaryotic translation elongation factor 1-alpha (EEF1A) control primer. An qPCR Master Mix was prepared for each primer and stored on ice (4° C.) until use. The qPCR Master Mix included 10 μL/reaction SYBR Green Mix (2×) (ThermoFisher), 1 μL/reaction of the primer mix (i.e., the MBD3L2 PCR Primer mix or the EEF1A Primer mix), and 4 μL/reaction deionized, RNase-free water. To set up the qPCR plate, 15 μL of the appropriate qPCR Master Mix was added to the appropriate wells for each target/primer. After all the targets/primers have been added to the wells, 5 μL of the sample was added to the corresponding wells so that each well is 20 μL total. The plate was covered with a clear sheet. An qPCR run was set up (QuantStudio 5) with the following cycle: […]

[3] = Cell cytotoxicity 50 assay (CC50), MB200 cells, cell titer glo; conditions: human
Experimental: as §1, with “(CC50) MB200 cells were grown until 80% confluent in F10 media supplemented with rhFGF basic (10 ng/ml), 15% fetal bovine serum, 1% penicillin streptomycin, 1% amphotericin B, and 1 μM dexamethasone. Adherent MB200 cells growing on 10 cm plate were then trypsinized with 1 ml of trypsin. Once the cells detached from the plate, F10 media (10 mL) was added, and the cells were strained through a 70 μm cell strainer. The cells were counted using a mixture of 10 μL cell suspension with 10 μL of trypan blue. Once the total number of cells were counted, a dilution of 200 k/mL was prepared, and the cells were seeded with 10 k cells/well in a 96-well plate in triplicate, making sure to avoid seeding cells in the edges of the plate to avoid edge effects. Using a multichannel pipet, the 200 k/mL cell dilution (50 μL/well) was added into wells B2-B11, C2-C11, and D2-D11 in triplicate.” for “(CC50)”

CC(=O)NC/C=C/C(=O)Nc1ccc(-c2nc3ccccc3s2)cc1 [Compound 77]
CC50 at 72 h [1]: > 10 µM
qPCR MBD3L2 Inhib at 11 µM [2]: YES
CC50 at 72 h [3]: > 10 µM

CC(=O)NC1CC(C(=O)Nc2ccc(-c3nc4ccccc4s3)cc2)C1 (stereo not drawn) [Compound 86]
CC50 at 72 h [1]: > 10 µM
qPCR MBD3L2 Inhib at 11 µM [2]: YES
CC50 at 72 h [3]: > 10 µM

CN(C(=O)CCCN1C(=O)CCC1=O)c1ccc(-c2nc3ccccc3s2)cc1 [Compound 141]
CC50 at 72 h [1]: 1 to 10 µM
qPCR MBD3L2 Inhib at 11 µM [2]: YES
CC50 at 72 h [3]: > 10 µM

O=C(Nc1ccc(-c2nc3ccccc3s2)cc1)C1CCC(N2C(=O)CCC2=O)C1 (stereo not drawn) [Compound 94]
CC50 at 72 h [1]: > 10 µM
qPCR MBD3L2 Inhib at 11 µM [2]: YES
CC50 at 72 h [3]: > 10 µM

Cc1ccc2nc(-c3ccc(NC(=O)CC4CCCC4)cc3)sc2c1 [Compound 16]
CC50 at 72 h [1]: > 10 µM
qPCR MBD3L2 Inhib at 11 µM [2]: YES
CC50 at 72 h [3]: > 10 µM

CC(=O)OCCCC(=O)Nc1ccc(-c2nc3ccc(C)cc3s2)cc1 [Compound 36]
CC50 at 72 h [1]: 1 to 10 µM
qPCR MBD3L2 Inhib at 11 µM [2]: YES
CC50 at 72 h [3]: > 10 µM

CC(=O)NCCC(=O)Nc1ccc(-c2nc3cc(F)ccc3s2)cc1 [Compound 44]
CC50 at 72 h [1]: > 10 µM
qPCR MBD3L2 Inhib at 11 µM [2]: YES
CC50 at 72 h [3]: > 10 µM

O=C(CCCN1CCCC1=O)Nc1ccc(-c2nc3cc(F)ccc3s2)cc1 [Compound 116]
CC50 at 72 h [1]: > 10 µM
qPCR MBD3L2 Inhib at 11 µM [2]: YES
CC50 at 72 h [3]: > 10 µM

O=C(CC1CCCC1)Nc1ccc(-c2nc3ccccc3s2)cc1 [Compound 21]
CC50 at 72 h [1]: > 10 µM
qPCR MBD3L2 Inhib at 11 µM [2]: YES
CC50 at 72 h [3]: > 10 µM

CC(=O)NCC(C)CC(=O)Nc1ccc(-c2nc3ccccc3s2)cc1 (stereo not drawn) [Compound 9]
CC50 at 72 h [1]: > 10 µM
qPCR MBD3L2 Inhib at 11 µM [2]: YES
CC50 at 72 h [3]: > 10 µM

O=C(CCCc1cccnc1)Nc1ccc(-c2nc3ccccc3s2)o1 [Compound 75]
CC50 at 72 h [1]: > 10 µM
qPCR MBD3L2 Inhib at 11 µM [2]: YES
CC50 at 72 h [3]: > 10 µM

Cc1ccc2nc(-c3ccc(NC(=O)C4CCC4)cc3)sc2c1 [Compound 29]
CC50 at 72 h [1]: > 10 µM
qPCR MBD3L2 Inhib at 11 µM [2]: YES
CC50 at 72 h [3]: 1 to 10 µM

N#Cc1ccc2nc(-c3ccc(NC(=O)CCN4C(=O)CCC4=O)cc3)sc2c1 [Compound 54]
CC50 at 72 h [1]: > 10 µM
qPCR MBD3L2 Inhib at 11 µM [2]: YES
CC50 at 72 h [3]: 1 to 10 µM

CC(=O)NCCCC(=O)Nc1ccc(-c2nc3ccccc3s2)c(C)c1 [Compound 129]
CC50 at 72 h [1]: > 10 µM
qPCR MBD3L2 Inhib at 11 µM [2]: YES
CC50 at 72 h [3]: > 10 µM

CC(=O)NCCCC(=O)Nc1ccc(-c2nc3ccccc3s2)o1 [Compound 76]
CC50 at 72 h [1]: > 10 µM
qPCR MBD3L2 Inhib at 11 µM [2]: YES
CC50 at 72 h [3]: > 10 µM

CC(=O)NC(C)CCC(=O)Nc1ccc(-c2nc3ccccc3s2)cc1 (stereo not drawn) [Compound 56]
CC50 at 72 h [1]: > 10 µM
qPCR MBD3L2 Inhib at 11 µM [2]: YES
CC50 at 72 h [3]: > 10 µM

CC(=O)NCCCC(=O)N(C)c1ccc(-c2nc3cc(F)ccc3s2)cc1 [Compound 145]
CC50 at 72 h [1]: > 10 µM
qPCR MBD3L2 Inhib at 11 µM [2]: YES
CC50 at 72 h [3]: > 10 µM

CC(=O)NCCNC(=O)c1ccc(-c2nc3cc(F)ccc3s2)cc1 [Compound 30]
CC50 at 72 h [1]: > 10 µM
qPCR MBD3L2 Inhib at 11 µM [2]: YES
CC50 at 72 h [3]: > 10 µM

CC(=O)NCCCC(=O)N(C)c1ccc(-c2nc3ccccc3s2)cc1 [Compound 142]
CC50 at 72 h [1]: > 10 µM
qPCR MBD3L2 Inhib at 11 µM [2]: YES
CC50 at 72 h [3]: > 10 µM

O=C(CCCc1cccnc1)Nc1coc(-c2nc3ccccc3s2)c1 [Compound 62]
CC50 at 72 h [1]: > 10 µM
qPCR MBD3L2 Inhib at 11 µM [2]: YES
CC50 at 72 h [3]: > 10 µM

CC(=O)NCCCNC(=O)c1ccc(-c2nc3cc(F)ccc3s2)cc1 [Compound 74]
CC50 at 72 h [1]: > 10 µM
qPCR MBD3L2 Inhib at 11 µM [2]: YES
CC50 at 72 h [3]: > 10 µM

CC(=O)NCCCC(=O)Nc1cnc(-c2nc3ccccc3s2)nc1 [Compound 59]
CC50 at 72 h [1]: > 10 µM
qPCR MBD3L2 Inhib at 11 µM [2]: YES
CC50 at 72 h [3]: > 10 µM

CC(=O)NCCCC(=O)Nc1ccc(-c2nc3cc(F)c(F)cc3s2)cc1 [Compound 84]
CC50 at 72 h [1]: > 10 µM
qPCR MBD3L2 Inhib at 11 µM [2]: YES
CC50 at 72 h [3]: > 10 µM

CC(=O)NC1CCC(C(=O)Nc2ccc(-c3nc4ccccc4s3)cc2)C1 (stereo not drawn) [Compound 85]
CC50 at 72 h [1]: > 10 µM
qPCR MBD3L2 Inhib at 11 µM [2]: YES
CC50 at 72 h [3]: > 10 µM

CC(=O)NCCCC(=O)Nc1ccc(-c2nc3ccccc3s2)cc1 [Compound 5]
CC50 at 72 h [1]: > 10 µM
qPCR MBD3L2 Inhib at 11 µM [2]: YES
CC50 at 72 h [3]: > 10 µM

CN(C(=O)CCN1C(=O)CCC1=O)c1ccc(-c2nc3ccccc3s2)cc1 [Compound 34]
CC50 at 72 h [1]: > 10 µM
qPCR MBD3L2 Inhib at 11 µM [2]: YES
CC50 at 72 h [3]: > 10 µM
